Measured values published in patent US20070004674A1, “Remedy for diseases associated with immunoglobulin gene translocation” (Kyowa Hakko Kogyo Co. Ltd., priority 2003, published 2007).

How the values were obtained:
[1] = tested on: multiple myeloma cells; details: mice to which multiple myeloma cells were transplanted; Blood, 100, 392 (2002); cited from earlier work
[2] = tested on: FGFR3; assay: Western blot: intracellular disappearance of FGFR3 in KMS-11 cells; assay type: cell-based, human; details: KF58333 4.0, 20 and 100 nmol/l, 40 hours, FIG. 1
Protocol: (§1) KMS-11 cells derived from human multiple myeloma [In Vitro Cell. Dev. Biol., 25, 723 (1989)], which were diluted to 10,000 cells/ml with RPMI 1640 medium containing 10% fetal bovine serum (hereinafter referred to as “culturing medium”), were put in plastic culture flasks (125 cm^2, Nunc) in 30 ml portions. KMS-11 cells are reported to be the cells in which a large amount of FGFR3 is expressed as a result of translocation between immunoglobulin gene on 14q32 and FGFR3 gene on 4p16.3 [Blood, 90, 4062 (1997)]. […]
(§2) To the thus recovered cells was added a cooled lysis buffer (50 mmol/l HEPES NaOH, pH 7.4, 250 mmol/l sodium chloride, 1 mmol/l ethylenediamine tetraacetate, 1% Nonidet P-40, 1 mmol/l dithiothreitol, 1 mmol/l phenylmethylsulfonyl fluoride, 5 μg/ml leupeptin), and the mixture was allowed to stand at 4° C. for 30 minutes for cytolysis, followed by centrifugation at 20000 G for 10 minutes. The concentration of proteins in the supernatant thus obtained was measured, and the samples were adjusted so that the amount of proteins per each lane was the same. […]
(§3) The separated protein samples were each transferred to a polyvinylidene difluoride membrane (Millipore). […] The band of each protein was detected by FluorImager (Molecular Dynamics) after reaction with ECF reagent (Molecular Dynamics).

[3] = tested on: Erk2; assay: Western blot: Erk2 level in KMS-11 cells; assay type: cell-based, human; details: KF58333 4.0, 20 and 100 nmol/l, 40 hours, FIG. 1, Erk2 is not an Hsp90 client protein
Protocol: as §1, §2, §3

[4] = tested on: KMS-11 cells; assay: Growth inhibition of KMS-11 cells (XTT); assay type: cell-based; details: Homo sapiens, 72 hours, calculated from the graph of FIG. 2, read-out: concentration to inhibit cell growth by 50% (GI50 value)
Protocol: KMS-11 cells diluted to 2×10^5 cells/ml with the culturing medium were pipetted into a 96-well microplate (Nunc) in an amount of 50 μl ([…]) per well. To each well was added 50 μl of a solution prepared by diluting a 10 mmol/l solution of KF58333 in DMSO to 600 nmol/l with the culturing medium and further serially diluting the resulting solution threefold with the culturing medium so as to make the final concentrations of KF58333 of 300, 100, 33.3, 11.1, 3.70 and 1.23 nmol/l, respectively. […] Thereafter, incubation was carried out in a 5% CO2 incubator at 37° C. for 72 hours, and the number of living cells was measured in the following manner. […] Then, the absorbance at 450 nm and 655 nm was measured using a microplate spectrophotometer (Model 550, BIO-RAD). A value (difference in absorbance) was calculated by subtracting the absorbance at 655 nm from that at 450 nm for each well. Since the number of living cells is proportional to the difference in absorbance, the rate (%) of the value of difference in absorbance obtained for cells to which various concentrations of KF58333 were added to that obtained for control cells to which KF58333 was not added when the latter value was designated as 100% was calculated as the rate of the number of living cells to that of control, and the cell growth inhibitory activity of KF58333 was measured.

[5] = tested on: Cdk6; assay: Western blot: Cdk6 level in KMS-11 cells; assay type: cell-based, human; details: KF58333 4.0, 20 and 100 nmol/l, 40 hours, FIG. 1
Protocol: as §1, §2, §3

[6] = tested on: Raf-1; assay: Western blot: Raf-1 level in KMS-11 cells; assay type: cell-based, human; details: KF58333 4.0, 20 and 100 nmol/l, 40 hours, FIG. 1
Protocol: as §1, §2, §3

[7] = tested on: KMS-11 cells; assay: In vivo antitumor effect in KMS-11 cell-transplanted mice; details: KMS-11 subcutaneous tumor in scid mice, 25 mg/kg intravenously once a day for 5 consecutive days, measured up to day 24, FIG. 3
Protocol: In vivo antitumor effect of a compound having an inhibitory action on Hsp90 was examined using a human tumor model prepared by transplanting KMS-11 cells to immunodeficient mice as a model of a disease associated with immunoglobulin gene translocations.
KMS-11 cells were cultured in a 5% CO2 incubator at 37° C. using the culturing medium for propagation. One day before transplantation, 0.3 mg/mouse of anti-asialo GM1 antibody was intraperitoneally administered to 10 […] Fox C.B-17/Icr-scidJcl mice (CLEA JAPAN). One day after the administration of the antibody, the cultured KMS-11 cells (1×10^7 cells/mouse) were subcutaneously transplanted to the mice. Fourteen days after the transplantation, the longer diameter and shorter diameter of the tumor subcutaneously grown were measured with slide calipers, and the tumor volume was calculated according to the following equation: Tumor volume V(mm^3)={longer diameter (mm)×[shorter diameter(mm)]^2}/2
At the same time, the body weight of each mouse was measured, and the mice were divided into two groups of 5 mice each so that the tumor volume and the body weight are randomized. The day was defined as day 0 of the administration test, and drug administration was started in the following manner. […]

| Structure (SMILES) | survival time of mice [1] | intracellular amount of FGFR3 (Western blot) [2] | intracellular amount of Erk2 (Western blot) [3] | GI50 [4] | intracellular amount of Cdk6 (Western blot) [5] | intracellular amount of Raf-1 (Western blot) [6] | tumor growth (volume ratio V/V0) [7] |
| --- | --- | --- | --- | --- | --- | --- | --- |
| C=CCNC1=C2C[C@@H](C)C[C@H](OC)[C@H](O)[C@@H](C)/C=C(\C)[C@H](OC(N)=O)[C@@H](OC)/C=C\C=C(/C)C(=O)NC(=CC1=O)C2=O [17-allylamino-17-demethoxy geldanamycin] | extended survival time | – | – | – | – | – | – |
| CC1CC2OC2\C=C/C=C/C(=N\OCCN2CCCC2=O)Cc2c(Cl)c(O)cc(O)c2C(=O)O1 (stereo not shown) [KF58333] | – | disappeared | no change | 19.8 nM | disappeared | disappeared | apparent suppression of tumor growth |
